Results taken from the NIST ThermoML archive (doi:10.1021/acs.jced.6b00929).
Numbers after ± are expanded uncertainties.

Key:
[1] = Crystal; DTA
[2] = Molar enthalpy of transition or fusion; conditions: Crystal; DSC

For `CC(=O)Oc1ccc(C2CC(=O)c3c(OC(C)=O)cc(OC(C)=O)cc3O2)cc1` (configuration not stated) [4',5,7-triacetoxyflavanone], the Normal melting temperature [1] was 73.80 ± 0.46 °C and the “Molar enthalpy of transition or fusion” value [2] was 4.97 ± 0.263 kcal/mol.
